Source: patent publication US20060057230A1, “Tea polyphenols bioavailability enhancement method” (priority 2004, published 2006)
“And” between values parts separate entries of the source, which are not always exact repeats. Equal entries are not always repeated. Where two headings read alike, the source gives them in different places.

Experiments:
[1] = Plasma total (free and conjugated) catechin Cmax after β-glucuronidase and sulfatase treatment; details: for form mostly present in plasma: comparing total and free catechin Cmax
Method: (§1) During the initial clinic visit, study participants completed a medical history form and underwent a brief physical examination. A fasting blood was collected and subjected to a complete blood count with differential leukocyte count and a comprehensive blood chemistry analysis. Eligible subjects were randomly assigned to one of the Polyphenon E doses (400, 800, and 1200 mg, based on EGCG content) and were required to refrain from the ingestion of tea, apples, chocolate, and their products two weeks prior to the first pharmacokinetic study day and until the end of the second pharmacokinetic study day. The night prior to the first pharmacokinetic study day, subjects fasted after midnight except for water. At approximately either 6 am or 9 am on the morning of the first pharmacokinetic study day, each subject was randomly assigned to receive Polyphenon E at the assigned dose level with or without breakfast. Breakfast consisted of one or two 4-oz muffins.
(§2) Study participants had the option of selecting from three varieties of Otis Spunkmeyer® brand muffins: cheese streusel, wild blueberry, and banana nut flavors. The muffins contain 420 to 480 calories each, with 48-60 grams of carbohydrates, 20-24 grams of fat, and 6 grams of protein. Blood samples were collected prior to and at 0.5, 1, 2, 4, 6, 8, 10, and 24 hours after Polyphenon E administration. Urine samples were collected prior to and up to 24 hours (divided into two intervals: 0-8 and 8-24 hours post-dose) after dosing. Following a one-week wash-out period, study subjects fasted overnight and were crossed-over to receive the same dose of Polyphenon E under the other fasting/fed condition.
(§3) Blood samples were collected into Vacutainer tubes containing sodium heparin. Within 30 minutes of collection, tubes were centrifuged for 10 minutes at 2000 rpm. After centrifugation, plasma was mixed with Vc-EDTA solution (0.4 M NaH2PO4 buffer containing 20% ascorbic acid and 0.1% EDTA, pH 3.6) in the volume ratio of 1:0.02 and stored at −80° C. until sample analysis. Urine specimen container was preadded with 1.38 g NaH2PO4, 1 g ascorbic acid, and 5 mg EDTA to prevent degradation of tea catechins. Urine specimen was kept cold by storing the specimen container in a cooler chest with freezer packs during each collection period. The total volume of each urine sample was measured. An aliquot of urine sample was mixed with the Vc-EDTA solution and stored at −80° C. until sample analysis.
(§4) In brief, for determination of free green tea catechins, plasma or urine samples were extracted with ethyl acetate. The ethyl acetate layer was mixed with a small aliquot of 0.1% ascorbic acid before drying by vacuum centrifugation. The dried residue was re-dissolved in 15% acetonitrile and injected onto HPLC. For determination of the total of free and glucuronic acid/sulfate conjugates of tea catechins, plasma or urine samples were mixed with an aliquot of β-glucuronidase and sulfatase in the presence of ascorbate-EDTA solution. Following pre-treatment, the samples were extracted as described above for the free catechins.
(§5) The HPLC system consisted of an ESA Model 465 refrigerated autosampler, an ESA Model 580 two-pump solvent delivery system, an ESA 5500 coulochem electrode array system (CEAS), and a Supelcosil C18 reversed-phase column (150×4.6 mm; particle size, 5 μm; Supelco Inc., Bellefonte, Pa.). The autosampler and column temperatures were maintained at 6° C. and 35° C., respectively. This assay employed a gradient of two mobile phases. Buffer A consisted of 30 mM NaH2PO4 buffer, acetonitrile, and tetrahydrofuran in the volume ratio of 98.13:1.75:0.12 (pH 3.35). Buffer B consisted of 15 mM NaH2PO4 buffer, acetonitrile, and tetrahydrofuran in the volume ratio of 41.5:58.5:12.5 (pH 3.45). The flow rate was maintained at 1 ml/min. The column was eluted with 96% buffer A and 4% buffer B from 0 to 7 min.

[2] = mice; cited from earlier work
[3] = Plasma free catechin pharmacokinetics after oral Polyphenon E, fasting/fed cross-over; assay type: in vivo, human; details: for EGCG AUC / EGCG Cmax: oral Polyphenon E 1200 mg dose level
Method: Study Design. […] Breakfast consisted of one or two 4-oz muffins.
Sample Collection and Processing. […] The total volume of each urine sample was measured.
Tea Polyphenol Concentration Measurements.
This assay employed a gradient of two mobile phases. […] The flow rate was maintained at 1 ml/min.
The distribution of pharmacokinetic parameter data was normalized by logarithmic transformation prior to statistical analyses. The primary analyses were to determine whether the pharmacokinetics of tea catechins are different under fasting/fed states. Pharmacokinetic parameters such as AUC, Cmax, Tmax, half-life, CL/F, Vd/F, and total amount excreted over 24 hr between the fasting and fed conditions were compared by standard cross-over statistical analyses. The pkcross routine in Stata 8.0 (StataCorp 2003) was used. […] A p<0.05 was considered statistically significant. In secondary analysis, EGCG pharmacokinetic parameters such as CL/F, Vd/F, dose normalized AUC, and dose normalized Cmax were compared among different dose levels using one-way analysis of variance followed by post-hoc t-tests corrected for multiple comparisons. For the post-hoc t-test, a p<0.0167 was considered statistically significant.

[4] = Total catechin recovered in urine over 24 hours after oral Polyphenon E; assay type: in vivo, human; details: following Polyphenon E administration
Method: Blood samples were collected prior to and at 0.5, 1, 2, 4, 6, 8, 10, and 24 hours after Polyphenon E administration. Urine samples were collected prior to and up to 24 hours (divided into two intervals: 0-8 and 8-24 hours post-dose) after dosing.
Sample Collection and Processing. Blood samples were collected into Vacutainer tubes containing sodium heparin. Within 30 minutes of collection, tubes were centrifuged for 10 minutes at 2000 rpm. After centrifugation, plasma was mixed with Vc-EDTA solution (0.4 M NaH2PO4 buffer containing 20% ascorbic acid and 0.1% EDTA, pH 3.6) in the volume ratio of 1:0.02 and stored at −80° C. until sample analysis. Urine specimen container was preadded with 1.38 g NaH2PO4, 1 g ascorbic acid, and 5 mg EDTA to prevent degradation of tea catechins. Urine specimen was kept cold by storing the specimen container in a cooler chest with freezer packs during each collection period. The total volume of each urine sample was measured. […]
The HPLC system consisted of an ESA Model 465 refrigerated autosampler, an ESA Model 580 two-pump solvent delivery system, an ESA 5500 coulochem electrode array system (CEAS), and a Supelcosil C18 reversed-phase column (150×4.6 mm; particle size, 5 μm; Supelco Inc., Bellefonte, Pa.). […] The eluent was monitored by the CEAS with potential settings at −10, 150, 300, and 500 mV. […]

[5] = rats; cited from earlier work
[6] = in vivo
Method: as §1, §2, §3, §4, §5

[7] = oral Polyphenon E (400 mg EGCG), Fasting
[8] = oral Polyphenon E (400 mg EGCG), Fed
[9] = oral Polyphenon E (800 mg EGCG), Fasting
[10] = oral Polyphenon E (800 mg EGCG), Fed
[11] = oral Polyphenon E (1200 mg EGCG), Fasting
[12] = oral Polyphenon E (1200 mg EGCG), Fed
[13] = oral Polyphenon E 200 mg (so in the source), Fasting
[14] = oral Polyphenon E 200 mg (so in the source), Fed
[15] = oral Polyphenon E 400 mg, Fasting
[16] = oral Polyphenon E 800 mg, Fasting

Which results are given for O=C(O[C@@H]1Cc2c(O)cc(O)cc2O[C@@H]1c1cc(O)c(O)c(O)c1)c1cc(O)c(O)c(O)c1 [EGCG, epigallocatechin gallate]?
form mostly present in plasma [1]: free form; Maximum plasma total catechin concentrations [1, 7]: 754.9 ± 399.9^3 ng/ml; Maximum plasma total catechin concentrations [1, 8]: 174.4 ± 80.6 ng/mL; Maximum plasma total catechin concentrations [1, 9]: 1622.7 ± 1501.4^3 ng/ml; Maximum plasma total catechin concentrations [1, 10]: 360.1 ± 136.9 ng/mL; Maximum plasma total catechin concentrations [1, 11]: 3988.4 ± 2068.2^3 ng/ml; Maximum plasma total catechin concentrations [1, 12]: 871.9 ± 625.3 ng/mL; oral bioavailability [2]: < 13%; AUC of free EGCG [3, 13]: 685.53 ± 394.33^2 min · μg/ml; CL/F of free EGCG [3, 13]: 2.37 ± 1.32^2 L/min; Cmax of free EGCG [3, 13]: 3371.6 ± 1651.2^2 ng/ml; Tmax of free EGCG [3, 13]: 90.60 ± 28.37^3 min; t1/2 of free EGCG [3, 13]: 228.4 ± 75.3 min; AUC of free EGCG [3, 14]: 299.40 ± 285.86^2 min · μg/ml; CL/F of free EGCG [3, 14]: 7.39 ± 4.86 L/min; Cmax of free EGCG [3, 14]: 923.6 ± 755.3 ng/mL; Tmax of free EGCG [3, 14]: 175.10 ± 74.58 min; t1/2 of free EGCG [3, 14]: 254.9 ± 59.9^4 min; AUC of free EGCG [3, 15]: 126.96±47.02 min · μg/ml and 126.96 ± 47.02^2 min · μg/ml; CL/F of free EGCG [3, 15]: 3.64 ± 1.55^2 L/min; Cmax of free EGCG [3, 15]: 798.7±573.1 ng/ml and 798.7 ± 573.1^2 ng/ml; Tmax of free EGCG [3, 15]: 93.90 ± 58.99^3 min; t1/2 of free EGCG [3, 15]: 170.5 ± 104.6 min; AUC of free EGCG ([3]; oral Polyphenon E 400 mg, Fed): 36.70±24.66 min · μg/ml and 36.70 ± 24.66^1 min · μg/ml; CL/F of free EGCG ([3]; oral Polyphenon E 400 mg, Fed): 14.53 ± 7.84 L/min; Cmax of free EGCG ([3]; oral Polyphenon E 400 mg, Fed): 141.8 ± 89.1 ng/mL; Tmax of free EGCG ([3]; oral Polyphenon E 400 mg, Fed): 122.90 ± 83.70 min; t1/2 of free EGCG ([3]; oral Polyphenon E 400 mg, Fed): 145.2 ± 129.1 min; AUC of free EGCG [3, 16]: 254.48±214.21 min · μg/ml and 254.48 ± 214.21^2 min · μg/ml; CL/F of free EGCG [3, 16]: 4.80 ± 2.69^2 L/min; Cmax of free EGCG [3, 16]: 1522.4±1357.8 ng/ml and 1522.4 ± 1357.8^2 ng/ml; Tmax of free EGCG [3, 16]: 83.30 ± 31.04^3 min; t1/2 of free EGCG [3, 16]: 156.5 ± 77.5 min; AUC of free EGCG ([3]; oral Polyphenon E 800 mg, Fed): 90.89 ± 37.39 µg·min/mL; CL/F of free EGCG ([3]; oral Polyphenon E 800 mg, Fed): 11.63 ± 9.25 L/min; Cmax of free EGCG ([3]; oral Polyphenon E 800 mg, Fed): 294.0 ± 113.5 ng/mL; Tmax of free EGCG ([3]; oral Polyphenon E 800 mg, Fed): 154.90 ± 78.31 min; t1/2 of free EGCG ([3]; oral Polyphenon E 800 mg, Fed): 220.9 ± 209.3 min; EGCG AUC ([3]; with food): 299.40 ± 285.86 µg·min/mL; EGCG Cmax ([3]; with food): 923.6 ± 755.3 ng/mL; EGCG AUC ([3]; without food): 685.53 ± 394.33 µg·min/mL; EGCG Cmax ([3]; without food): 3371.6 ± 1651.2 ng/mL; Maximum plasma free catechin concentrations [3, 7]: 799 ± 573 ng/mL; Maximum plasma free catechin concentrations [3, 8]: 141.8 ± 89.1 ng/mL; Maximum plasma free catechin concentrations [3, 9]: 1522.4 ± 1357.8^3 ng/ml; Maximum plasma free catechin concentrations [3, 10]: 294.0 ± 113.5 ng/mL; Maximum plasma free catechin concentrations [3, 11]: 3371.6 ± 1651.2^3 ng/ml; Maximum plasma free catechin concentrations [3, 12]: 923.6 ± 755.3 ng/mL; urinary total catechin levels [4]: very low or undetectable; oral dose available in the systemic blood [5]: less than 2%

Which results are given for Oc1cc(O)c2c(c1)O[C@H](c1ccc(O)c(O)c1)[C@H](O)C2 [EC, epicatechin]?
form mostly present in plasma [1]: conjugated forms; free catechin levels in plasma samples ([3]; after oral Polyphenon E): very low or undetectable; Maximum plasma free catechin concentrations [3, 7]: 5.6 ± 7.8 ng/mL; Maximum plasma free catechin concentrations [3, 8]: 1.6 ± 3.9 ng/mL; Maximum plasma free catechin concentrations [3, 9]: 1.92 ± 3.4 ng/mL; Maximum plasma free catechin concentrations [3, 10]: 2.8 ± 5.0 ng/mL; Maximum plasma free catechin concentrations [3, 11]: 16.6 ± 30.0 ng/mL; Maximum plasma free catechin concentrations [3, 12]: 10.1 ± 15.3 ng/mL

With Oc1cc(O)c2c(c1)O[C@H](c1cc(O)c(O)c(O)c1)[C@H](O)C2 [EGC, epigallocatechin] as the compound, how does the “form mostly present in plasma” value [6] read?
Its value is “conjugated forms”.

With O=C(O[C@@H]1Cc2c(O)cc(O)cc2O[C@@H]1c1ccc(O)c(O)c1)c1cc(O)c(O)c(O)c1 [ECG, epicatechin gallate] as the compound, how does the “form mostly present in plasma” value [1] read?
The value was “free form”.

What about the Maximum plasma free catechin concentrations [3, 7] of the same compound?
The Maximum plasma free catechin concentrations was 87.6 ± 62 ng/mL.

And the “Maximum plasma free catechin concentrations” value [3, 8]?
Its value is 15.7 ± 8.8 ng/mL.

What about the Maximum plasma free catechin concentrations [3, 9] of the same compound?
Its Maximum plasma free catechin concentrations is 174 ± 141 ng/mL.

What about the “Maximum plasma free catechin concentrations” value [3, 10] of the same compound?
Its value is 33.9 ± 11.0 ng/mL.

What about the Maximum plasma free catechin concentrations [3, 11] of the same compound?
Its Maximum plasma free catechin concentrations is 383 ± 176 ng/mL.

What about the “Maximum plasma free catechin concentrations” value [3, 12] of the same compound?
Its value is 112.9 ± 88.2 ng/mL.

What about the “urinary total catechin levels” value [4] of the same compound?
The value was “very low or undetectable”.
